Test results from patent US20040014764A1, “N-myristoyltransferase inhibitor compositions and methods of use” (priority 2002, published 2004).
Read-outs that look alike come from different tables or passages of the source.

Legend:
[1] = tested on: T24 human bladder carcinoma cells; assay: Cytotoxicity assay, sulforhodamine B binding; conditions: T-24, 48 h, read-out: Cytotoxicity IC50
Description: To determine the abilities of NMT inhibitors to affect the growth of hyperproliferative cells, cytotoxicity assays were performed using the T24 human bladder carcinoma cell line. […] In these assays, T24 cells growing in tissue culture in the presence of 10% fetal bovine serum are treated with varying concentrations of a test compound for 48 hours. At the end of the treatment period, the number of surviving tumor cells is quantified using any of a variety of methods well known in the field. In these, experiments, the number of surviving cells was determined using the sulforhodamine B binding assay.

recombinant human NMT [2] = biological target: T1, recombinant human NMT (Homo sapiens, UniProt P30419); assay: NMT screening assay with purified recombinant GST-NMT-1, [3H]-myristoyl-CoA and biotinylated peptide
T1 sequence (P30419 1-496): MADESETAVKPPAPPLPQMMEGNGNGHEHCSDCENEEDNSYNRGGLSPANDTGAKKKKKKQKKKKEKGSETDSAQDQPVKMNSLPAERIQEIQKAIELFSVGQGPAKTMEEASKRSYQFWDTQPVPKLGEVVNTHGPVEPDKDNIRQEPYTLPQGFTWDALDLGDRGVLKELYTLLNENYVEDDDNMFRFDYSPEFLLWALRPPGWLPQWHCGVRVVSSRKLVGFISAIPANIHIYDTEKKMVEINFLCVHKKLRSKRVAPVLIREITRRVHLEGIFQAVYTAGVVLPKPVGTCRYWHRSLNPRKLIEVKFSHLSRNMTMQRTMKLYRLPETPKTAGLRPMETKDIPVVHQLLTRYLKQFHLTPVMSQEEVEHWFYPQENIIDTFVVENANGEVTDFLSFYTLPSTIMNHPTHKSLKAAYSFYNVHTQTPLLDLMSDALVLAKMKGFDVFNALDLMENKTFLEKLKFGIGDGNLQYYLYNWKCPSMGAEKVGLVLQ

endogenous NMT = assay: N-myr-GFP localization in transfected CV-1 cells (fluorescence microscopy); format: cell-based, monkey
Description: Cellular effects of COPP compounds. […] To determine their efficacy in intact cells, a novel assay was developed in which the N-terminus of enhanced green fluorescent protein (GFP) was modified to allow its myristoylation (N-myr-GFP) by endogenous NMT. To begin, the myristoylation sequence […] was added to the N-terminus of green fluorescent protein (N-myr-GFP) using techniques familiar to those practiced in the art. Since GFP is intrinsically fluorescent, the sites of its intracellular distribution can be visualized using fluorescence microscopy. When a plasmid containing the N-myr-GFP sequence is transfected into CV-1 cells, the GFP encoded by this construct is myristoylated by endogenous NMT causing it to localize to the plasma membrane, as indicated by the bright fluorescence at the cell periphery (FIG. 2). […] This method provides evidence that the inhibitors detected in the screen with recombinant NMT can also block endogenous NMT activity in whole cells.

[3] = tested on: panel of human tumor cell lines; assay: Proliferation of a panel of human tumor cell lines (summary); format: cell-based; conditions: range over the 8 cell lines of TABLE 3, read-out: IC50s across the tumor cell line panel
Description: (§1) Antiproliferative effects of compound 537.
(§2) Additionally, the effects of compound 537 on the proliferation of a panel of human tumor cell lines were determined. […] Of interest, colon-derived HT29 cells were most sensitive to compound 537, and previous work has indicated a close association of activation of Src (which requires myristoylation for activity) and colon cancer (Raju et al., Exp. Cell Res. 235: 145 (1997)).

GST-hNMT-1 = biological target: T2, GST-hNMT-1 (Homo sapiens, UniProt P30419); assay: Peptide and myristoyl-CoA substrate competition experiments (Michaelis-Menten); format: biochemical
T2 construct: made in house; host or cells: E. coli
T2 sequence (P30419 1-496): T1 sequence (P30419 1-496)
Description: Development of the NMT screening assay.
Mechanism of inhibition of NMT by COPP compounds. The mechanism of inhibition by compound 537 was examined using peptide and myristoyl-CoA substrate competition experiments with GST-hNMT-l. In the absence of inhibitor, the KM for myristoyl-CoA compares very well with the literature value of 2.6 μM (Rocque et al., J Biol. Chem. 268: 9964 (1993)). […] However, it is well established that the affinity for the peptide is highly sequence-sensitive, so that KMS >100 μM are not unusual. For studies of the ability of compound 537 to interact with the peptide-binding site of NMT, the peptide concentration was varied from 0 to 500 μM, while the myristoyl-CoA concentration was kept constant in the assays. The presence of compound 537 at its IC50 concentration […] the KM for the peptide relative to the solvent control. […] To determine the effects of compound 537 on the myristoyl-CoA binding site, the concentration of myristoyl-CoA was varied from 0 to 100 μM, while the peptide concentration was held constant in the assays. […] Overall, these kinetic analyses indicate that compound 537, and most likely the rest of the COPP family, inhibit NMT activity by competing with the substrate peptide for binding to the enzyme.

HepG2 = assay: Antiproliferative activity toward human tumor cell lines; format: cell-based; conditions: HepG2, Liver, mean ± SEM of 4 experiments
Description: as §1, §2

MDA-MB-231 = assay: as above; format: cell-based; conditions: MDA-MB-231, Breast, mean ± SEM of 4 experiments
Description: as §1, §2

DU145 = assay: as above; format: cell-based; conditions: DU-145, DU145, Prostate, mean ± SEM of 4 experiments
Description: as §1, §2

SKOV3 = assay: as above; format: cell-based; conditions: SK-OV-3, SKOV3, Ovary, mean ± SEM of 4 experiments
Description: as §1, §2

HT29 = assay: as above; format: cell-based; conditions: HT-29, HT29, Colon, mean ± SEM of 4 experiments
Description: as §1, §2

Panc-1 = assay: as above; format: cell-based; conditions: Panc-1, Pancreas, mean ± SEM of 4 experiments
Description: as §1, §2

MCF-7 = assay: as above; format: cell-based; conditions: MCF7, MCF-7, Breast, mean ± SEM of 4 experiments
Description: as §1, §2

A-498 = assay: as above; format: cell-based; conditions: A498, A-498, Kidney, mean ± SEM of 4 experiments
Description: as §1, §2

recombinant human NMT [4] = biological target: T1, recombinant human NMT; parameters: made in house; host or cells: E. coli; conditions: published value (Boutin et al. 1991); read-out: published IC50 concentration for NMT; cited from earlier work

Row | IC50 (recombinant human NMT [2]) [µM] | SMILES | IC50 [1] [nM] | other results
1 | 35 ± 5 | COc1ccc(CN2CCN3CCCC3C2C2CCCCC2)c2ccccc12 (stereo not drawn) [Compound 621] | 700 | –
2 | 47 ± 7 | CC1C2CCCN2CCN1Cc1c2ccccc2c(Cl)c2ccccc12 (stereo not drawn) [Compound 766] | 4200 | –
3 | 41 ± 1 | O=[N+]([O-])c1cccc(-c2ccc(CN3CCN4CCCC4C3C3CCCCC3)o2)c1 (stereo not drawn) [Compound 616] | 2100 | –
4 | 419 ± 30 | COc1ccc(CN2CCN3CCCC3C2C2CCCCC2)cc1 (stereo not drawn) [Compound 486] | 8100 | –
5 | 42 ± 5 | c1ccc2cc(N3CCN4CCCC4C3C3CCCCC3)ccc2c1 (stereo not drawn) [Compound 542] | 1300 | –
6 | 43 ± 4 | CC1=C(CCN2CCN3CCCC3C2C2CCCCC2)C(C)(C)CCC1 (stereo not drawn) [Compound 638] | 1400 | –
7 | 6 | CCn1c2ccccc2c2cc(CN3CCN4CCCC4C3C3CCCCC3)ccc21 (stereo not drawn) [Compound 537] | 1800 | intracellular distribution of N-myr-GFP (endogenous NMT; micromolar concentrations): displacement of N-myr-GFP to the cytosol; IC50 [3]: 3.7 to 14.8 µM; Peptide Vmax (GST-hNMT-1; in presence of compound at its IC50 concentration, peptide varied 0 to 500 μM, myristoyl-CoA constant): 0.076 ± 0.006 pmol/min; Myristoyl-CoA Vmax (GST-hNMT-1; in presence of compound, myristoyl-CoA varied 0 to 100 μM, peptide constant): 0.034 ± 0.001 pmol/min; mechanism of inhibition with respect to the lipid substrate (GST-hNMT-1; myristoyl-CoA competition): noncompetitive inhibitor; mechanism of inhibition with respect to the peptide substrate (GST-hNMT-1; peptide competition): competitive inhibitor; IC50 (HepG2): 4.4 ± 1.2 µM; IC50 (MDA-MB-231): 11.9 ± 1.3 µM; IC50 (DU145): 14.8 ± 2.9 µM; IC50 (SKOV3): 13.2 ± 3.6 µM; IC50 (HT29): 3.7 ± 0.6 µM; IC50 (Panc-1): 12.6 ± 1.3 µM; IC50 (MCF-7): 8 ± 0.9 µM; IC50 (A-498): 5.8 ± 1.4 µM
8 | 40 ± 6 | CC1C2CCCN2CCN1Cc1cccc(Oc2ccc(Cl)cc2)c1 (stereo not drawn) [Compound 726, 2-[3-(4-chloro-phenoxy)-benzyl]-1-methyl-octahydro-pyrrolo[1,2-a]pyrazine] | 1500 | –
9 | > 8000 | Brc1csc(CN2CCN3CCCC3C2C2CCCCC2)c1 (stereo not drawn) [Compound 555] | 1200 | –
10 | 28 ± 8 | COc1ccc2ccccc2c1CN1CCN2CCCC2C1C1CCCCC1 (stereo not drawn) [Compound 622] | 1500 | –
11 | 1600 ± 200 | COc1ccccc1/C=C/CN1CCN2CCCC2C1C1CCCCC1 (stereo not drawn) [Compound 640] | 2800 | –
12 | 113 ± 7 | C1CCC(C2C3CCCN3CCN2C2CCCCC2)CC1 (stereo not drawn) [Compound 624] | 1600 | –
13 | > 8000 | Cc1ccc2occ(CN3CCN4CCCC4C3C3CCCCC3)c(=O)c2c1 (stereo not drawn) [Compound 591] | 9700 | –
14 | 45 ± 2 | O=[N+]([O-])c1ccccc1-c1ccc(CN2CCN3CCCC3C2C2CCCCC2)o1 (stereo not drawn) [Compound 615] | 1400 | –
15 | – | CCCCCCCCCCCCC(O)C(=O)O (stereo not drawn) [2-hydroxymyristic acid, reference compound] | – | intracellular distribution of N-myr-GFP (endogenous NMT; millimolar concentrations): redistribution of GFP to the cytosol
16 | 36 ± 4 | O=[N+]([O-])c1ccc(-c2ccc(CN3CCN4CCCC4C3C3CCCCC3)o2)cc1 (stereo not drawn) [Compound 617] | 4600 | –
17 | – | CCCCCCCCCCCCCC(=O)N[C@@H](Cc1ccccc1)C(=O)O [myristoylphenylalanine, reference compound] | – | IC50 (recombinant human NMT [4]): 100 µM; inhibition at 100 µM (recombinant human NMT [2]; read-out: inhibition of recombinant human NMT): ~50%

Row | SMILES | IC50 (recombinant human NMT [2]) [µM] | IC50 [1] [nM] | other results
18 | c1cc2ccc3ccc(CN4CCN5CCCC5C4C4CCCCC4)c4ccc(c1)c2c34 (stereo not drawn) [Compound 629] | 70 ± 8 | 3000 | –
19 | c1cncc(N2CCN3CCCC3C2C2CCCCC2)c1 (stereo not drawn) [Compound 522] | 590 ± 127 | 400000 | –
